Measured values reported in patent US12678488B2, “Batch management method for improving farrowing rate or number of piglets born alive in swine” (priority 2024, dated 2026).

System: Landrace x Large White reserve sows
Assay: Heat detection: estrus rate and estrus time in gilts, different doses (Example 2)
Assay type: in vivo, pigs
Source text: Landrace x Large White reserve sows, about 230 days old, were randomly divided into a batch farrowing with FTAI and batch farrowing with FTAI combined with different doses of 1-[bis(4-cyanophenyl)methyl]-1,2,4-triazole groups, and during the experiment, the experimental sows in each group were fed regularly and gained free access to water according to the requirements of feeding management in the farm.
Referring to the dosage of 1-[bis(4-cyanophenyl)methyl]-1,2,4-triazole in clinical medicine and using standard weight-dosage conversion, the recommended dosage of 1-[bis(4-cyanophenyl)methyl]-1,2,4-triazole for sows was 50-150 μg/kg·BW/day, orally for consecutive 5 days, as derived by conversion. In addition, the applicant previously studied uniparous cows, and in the ovulation induction scheme, the reference dosage of 1-[bis(4-cyanophenyl)methyl]-1,2,4-triazole was 60-200 μg/kg·BW, administered in a single dose; furthermore, by means of conversion in conjunction with the dosage for model animals (mice) previously in the laboratory, various dosages were designed. The treatment methods of hormones and drugs for sows in each group were as follows: • batch farrowing with FTAI: the sows were fed with an altrenogest oral solution at 20 mg/animal at the same time every day, for 18 days; PMSG at 1000 IU/animal was injected intramuscularly 42 h after the last feeding with altrenogest, GnRH at 100 μg/animal was injected intramuscularly 80 h after the injection of PMSG, a first timed insemination was performed 24 h after the injection of GnRH, and a second timed insemination was performed 16 h after the first insemination.
(§1) Treatment group 1: the hormone treatment and mating schemes for gilts were the same as FTAI. The difference lay in that PMSG at 1000 IU/gilt was injected intramuscularly 42 h after the last feeding with altrenogest, and 1-[bis(4-cyanophenyl)methyl]-1,2,4-triazole at 12 μg/kg·BW/day was administered orally 8 h after the injection of PMSG, for 1 day.
as §1, with “2:” for “1:”, “2 days.” for “1 day.”
as §1, with “3:” for “1:”, “20” for “12”
as §1, with “4:” for “1:”, “sows” for “gilts”, “1-[bis (4-cyanophenyl)methyl]-1,2,4-triazole” for “1-[bis(4-cyanophenyl)methyl]-1,2,4-triazole”, “20” for “12”, “2 days.” for “1 day.”
as §1, with “5:” for “1:”, “IU/animal” for “IU/gilt”, “20” for “12”, “3 days.” for “1 day.”
as §1, with “6:” for “1:”, “IU/animal” for “IU/gilt”, “20” for “12”, “5 days.” for “1 day.”
Treatment group 7: the hormone treatment and mating schemes for gilts were the same as FTAI. […]

N#Cc1ccc(C(c2ccc(C#N)cc2)n2cncn2)cc1 [1-[bis(4-cyanophenyl)methyl]-1,2,4-triazole]
Number of estrous animals at different times after stopping Altrenogest (day/animal) (day 5.5, Example 2 Treatment group 5: 20 μg/kg·BW/day orally, 3 days, gilts): 6 animal | Number of estrous animals at different times after stopping Altrenogest (day/animal) (day 5.5, Example 2 Treatment group 6: 20 μg/kg·BW/day orally, 5 days, gilts): 0 animal | Number of estrous animals at different times after stopping Altrenogest (day/animal) (day 5.5, Example 2 Treatment group 7: 40 μg/kg·BW/day orally, 1 day, gilts): 2 animal | Number of estrous animals at different times after stopping Altrenogest (day/animal) (day 5.5, Example 2 Treatment group 8: 40 μg/kg·BW/day orally, 5 days, gilts): 0 animal | Number of estrous animals at different times after stopping Altrenogest (day/animal) (day 6, Example 2 Treatment group 1: 12 μg/kg·BW/day orally, 1 day, gilts): 8 animal | Number of estrous animals at different times after stopping Altrenogest (day/animal) (day 6, Example 2 Treatment group 2: 12 μg/kg·BW/day orally, 2 days, gilts): 7 animal | Number of estrous animals at different times after stopping Altrenogest (day/animal) (day 6, Example 2 Treatment group 3: 20 μg/kg·BW/day orally, 1 day, gilts): 7 animal | Number of estrous animals at different times after stopping Altrenogest (day/animal) (day 6, Example 2 Treatment group 4: 20 μg/kg·BW/day orally, 2 days, gilts): 6 animal | Number of estrous animals at different times after stopping Altrenogest (day/animal) (day 6, Example 2 Treatment group 5: 20 μg/kg·BW/day orally, 3 days, gilts): 7 animal | Number of estrous animals at different times after stopping Altrenogest (day/animal) (day 6, Example 2 Treatment group 6: 20 μg/kg·BW/day orally, 5 days, gilts): 5 animal | Number of estrous animals at different times after stopping Altrenogest (day/animal) (day 6, Example 2 Treatment group 7: 40 μg/kg·BW/day orally, 1 day, gilts): 2 animal | Number of estrous animals at different times after stopping Altrenogest (day/animal) (day 6, Example 2 Treatment group 8: 40 μg/kg·BW/day orally, 5 days, gilts): 2 animal | Number of estrous animals at different times after stopping Altrenogest (day/animal) (day 6.5, Example 2 Treatment group 1: 12 μg/kg·BW/day orally, 1 day, gilts): 4 animal | Number of estrous animals at different times after stopping Altrenogest (day/animal) (day 6.5, Example 2 Treatment group 2: 12 μg/kg·BW/day orally, 2 days, gilts): 3 animal | Number of estrous animals at different times after stopping Altrenogest (day/animal) (day 6.5, Example 2 Treatment group 3: 20 μg/kg·BW/day orally, 1 day, gilts): 5 animal | Number of estrous animals at different times after stopping Altrenogest (day/animal) (day 6.5, Example 2 Treatment group 4: 20 μg/kg·BW/day orally, 2 days, gilts): 4 animal | Number of estrous animals at different times after stopping Altrenogest (day/animal) (day 6.5, Example 2 Treatment group 5: 20 μg/kg·BW/day orally, 3 days, gilts): 3 animal | Number of estrous animals at different times after stopping Altrenogest (day/animal) (day 6.5, Example 2 Treatment group 6: 20 μg/kg·BW/day orally, 5 days, gilts): 3 animal | Number of estrous animals at different times after stopping Altrenogest (day/animal) (day 6.5, Example 2 Treatment group 7: 40 μg/kg·BW/day orally, 1 day, gilts): 9 animal | Number of estrous animals at different times after stopping Altrenogest (day/animal) (day 6.5, Example 2 Treatment group 8: 40 μg/kg·BW/day orally, 5 days, gilts): 2 animal | Number of estrous animals at different times after stopping Altrenogest (day/animal) (day 7, Example 2 Treatment group 1: 12 μg/kg·BW/day orally, 1 day, gilts): 5 animal | Number of estrous animals at different times after stopping Altrenogest (day/animal) (day 7, Example 2 Treatment group 2: 12 μg/kg·BW/day orally, 2 days, gilts): 3 animal | Number of estrous animals at different times after stopping Altrenogest (day/animal) (day 7, Example 2 Treatment group 3: 20 μg/kg·BW/day orally, 1 day, gilts): 2 animal | Number of estrous animals at different times after stopping Altrenogest (day/animal) (day 7, Example 2 Treatment group 4: 20 μg/kg·BW/day orally, 2 days, gilts): 2 animal | Number of estrous animals at different times after stopping Altrenogest (day/animal) (day 7, Example 2 Treatment group 5: 20 μg/kg·BW/day orally, 3 days, gilts): 3 animal | Number of estrous animals at different times after stopping Altrenogest (day/animal) (day 7, Example 2 Treatment group 6: 20 μg/kg·BW/day orally, 5 days, gilts): 8 animal | Number of estrous animals at different times after stopping Altrenogest (day/animal) (day 7, Example 2 Treatment group 7: 40 μg/kg·BW/day orally, 1 day, gilts): 0 animal | Number of estrous animals at different times after stopping Altrenogest (day/animal) (day 7, Example 2 Treatment group 8: 40 μg/kg·BW/day orally, 5 days, gilts): 0 animal | Number of estrous animals at different times after stopping Altrenogest (day/animal) (day 7.5, Example 2 Treatment group 1: 12 μg/kg·BW/day orally, 1 day, gilts): 1 animal | Number of estrous animals at different times after stopping Altrenogest (day/animal) (day 7.5, Example 2 Treatment group 2: 12 μg/kg·BW/day orally, 2 days, gilts): 1 animal | Number of estrous animals at different times after stopping Altrenogest (day/animal) (day 7.5, Example 2 Treatment group 3: 20 μg/kg·BW/day orally, 1 day, gilts): 1 animal | Number of estrous animals at different times after stopping Altrenogest (day/animal) (day 7.5, Example 2 Treatment group 4: 20 μg/kg·BW/day orally, 2 days, gilts): 1 animal | Number of estrous animals at different times after stopping Altrenogest (day/animal) (day 7.5, Example 2 Treatment group 5: 20 μg/kg·BW/day orally, 3 days, gilts): 2 animal | Number of estrous animals at different times after stopping Altrenogest (day/animal) (day 7.5, Example 2 Treatment group 6: 20 μg/kg·BW/day orally, 5 days, gilts): 1 animal | Number of estrous animals at different times after stopping Altrenogest (day/animal) (day 7.5, Example 2 Treatment group 7: 40 μg/kg·BW/day orally, 1 day, gilts): 9 animal | Number of estrous animals at different times after stopping Altrenogest (day/animal) (day 7.5, Example 2 Treatment group 8: 40 μg/kg·BW/day orally, 5 days, gilts): 0 animal | Number of estrous animals at different times after stopping Altrenogest (day/animal) (day 8, Example 2 Treatment group 1: 12 μg/kg·BW/day orally, 1 day, gilts): 0 animal | Number of estrous animals at different times after stopping Altrenogest (day/animal) (day 8, Example 2 Treatment group 2: 12 μg/kg·BW/day orally, 2 days, gilts): 0 animal | Number of estrous animals at different times after stopping Altrenogest (day/animal) (day 8, Example 2 Treatment group 3: 20 μg/kg·BW/day orally, 1 day, gilts): 0 animal | Number of estrous animals at different times after stopping Altrenogest (day/animal) (day 8, Example 2 Treatment group 4: 20 μg/kg·BW/day orally, 2 days, gilts): 0 animal | Number of estrous animals at different times after stopping Altrenogest (day/animal) (day 8, Example 2 Treatment group 5: 20 μg/kg·BW/day orally, 3 days, gilts): 1 animal | Number of estrous animals at different times after stopping Altrenogest (day/animal) (day 8, Example 2 Treatment group 6: 20 μg/kg·BW/day orally, 5 days, gilts): 2 animal | Number of estrous animals at different times after stopping Altrenogest (day/animal) (day 8, Example 2 Treatment group 7: 40 μg/kg·BW/day orally, 1 day, gilts): 0 animal | Number of estrous animals at different times after stopping Altrenogest (day/animal) (day 8, Example 2 Treatment group 8: 40 μg/kg·BW/day orally, 5 days, gilts): 0 animal | estrus on the 8th day after altrenogest was stopped (gilts, 80 and 160 μg/kg·BW/day for 5 consecutive days (treatment groups 9 and 10)): no estrus | estrus rate (gilts, high dose or multiple (5) low doses (treatment groups 6, 8, 9, and 10)): decreased estrus rate or even no estrus | estrus rate (gilts, low dose (treatment groups 1, 2, 3, 4, 5, and 7), compared with FTAI group): not significantly different | estrus in sows (high-dose): inhibited | gilt estrus rate (low-dose, batch farrowing with FTAI): no significant change
